According to ChEMBL document CHEMBL1201862, “PubChem BioAssay data set” (2004):
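These data come from cells grown in 96-well plates and exposed to compound for 48 hours at five concentrations. GI50: concentration for 50% inhibition of growth.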 The source made the active and inactive calls. Cut-off read from the data, not from the text of the source: active = GI50 up to about 1.1 µM and inactive = higher.

Tests used:
Test in all cases: inhibition of tumour cell growth, NCI panel, 48 h
COLO 205 = tested on: COLO 205
MOLT-4 = tested on: MOLT-4
DU-145 = tested on: DU-145
HL-60 = tested on: HL-60
A498 = tested on: A498
KM12 = tested on: KM12
NCI/ADR-RES = tested on: NCI/ADR-RES
U-251 = tested on: U-251
RPMI-8226 = tested on: RPMI-8226
CCRF-CEM = tested on: CCRF-CEM
IGROV-1 = tested on: IGROV-1
786-0 = tested on: 786-0
CAKI-1 = tested on: CAKI-1
M14 = tested on: M14
PC-3 = tested on: PC-3
MDA-N = tested on: MDA-N
OVCAR-3 = tested on: OVCAR-3
LOX IMVI = tested on: LOX IMVI
SF-268 = tested on: SF-268
HCT-15 = tested on: HCT-15
UO-31 = tested on: UO-31
SW-620 = tested on: SW-620
BT-549 = tested on: BT-549
MDA-MB-435 = tested on: MDA-MB-435
HCC 2998 = tested on: HCC 2998
SK-MEL-28 = tested on: SK-MEL-28
MCF7 = tested on: MCF7
RXF 393 = tested on: RXF 393
NCI-H23 = tested on: NCI-H23
UACC-62 = tested on: UACC-62
SNB-19 = tested on: SNB-19
UACC-257 = tested on: UACC-257
NCI-H460 = tested on: NCI-H460
HCT-116 = tested on: HCT-116
SK-MEL-5 = tested on: SK-MEL-5
HT-29 = tested on: HT-29
HOP-62 = tested on: HOP-62
SN12C = tested on: SN12C
OVCAR-5 = tested on: OVCAR-5
Hs-578T = tested on: Hs-578T
SF-295 = tested on: SF-295
OVCAR-4 = tested on: OVCAR-4
EKVX = tested on: EKVX
K562 = tested on: K562
ACHN = tested on: ACHN
SR = tested on: SR

For `COC(=O)CSC(=S)Nc1nnc(NC(=S)SCOC(C)=O)n1C(=S)SCC(=O)OC`, the GI50 (COLO 205) was > 100 µM (inactive), the GI50 (MOLT-4) was > 100 µM (inactive) and the GI50 (DU-145) was > 100 µM (inactive). The GI50 (HL-60) was > 100 µM (inactive), the GI50 (A498) was > 100 µM (inactive) and the GI50 (KM12) was > 100 µM (inactive). The GI50 (NCI/ADR-RES) was > 100 µM (inactive), the GI50 (U-251) was > 100 µM (inactive) and the GI50 (RPMI-8226) was > 100 µM (inactive). For the same compound, the GI50 (CCRF-CEM) was > 100 µM (inactive), the GI50 (IGROV-1) was > 100 µM (inactive) and the GI50 (786-0) was > 100 µM (inactive). For the same compound, the GI50 (CAKI-1) was > 100 µM (inactive), the GI50 (M14) was > 100 µM (inactive) and the GI50 (PC-3) was > 100 µM (inactive). For the same compound, the GI50 (MDA-N) was > 100 µM (inactive), the GI50 (OVCAR-3) was > 100 µM (inactive) and the GI50 (LOX IMVI) was > 100 µM (inactive). For the same compound, the GI50 (SF-268) was > 100 µM (inactive), the GI50 (HCT-15) was greater than 100 µM and the GI50 (UO-31) was > 100 µM (inactive). The GI50 (SW-620) was > 100 µM (inactive), the GI50 (BT-549) was > 100 µM (inactive) and the GI50 (MDA-MB-435) was > 100 µM (inactive). The GI50 (HCC 2998) was > 100 µM (inactive), the GI50 (SK-MEL-28) was > 100 µM (inactive) and the GI50 (MCF7) was > 100 µM (inactive). The GI50 (RXF 393) was > 100 µM (inactive), the GI50 (NCI-H23) was > 100 µM (inactive) and the GI50 (UACC-62) was > 100 µM (inactive). The GI50 (SNB-19) was > 100 µM (inactive), the GI50 (UACC-257) was > 100 µM (inactive) and the GI50 (NCI-H460) was > 100 µM (inactive). For the same compound, the GI50 (HCT-116) was > 100 µM (inactive), the GI50 (SK-MEL-5) was > 100 µM (inactive) and the GI50 (HT-29) was > 100 µM (inactive). The GI50 (HOP-62) was 6.97 µM (inactive), the GI50 (SN12C) was > 100 µM (inactive) and the GI50 (OVCAR-5) was > 100 µM (inactive). The GI50 (Hs-578T) was > 100 µM (inactive), the GI50 (SF-295) was > 100 µM (inactive) and the GI50 (OVCAR-4) was > 100 µM (inactive). For the same compound, the GI50 (EKVX) was > 100 µM (inactive), the GI50 (K562) was > 100 µM (inactive) and the GI50 (ACHN) was > 100 µM (inactive). For the same compound, the GI50 (SR) was > 100 µM (inactive).
